According to US11590139B2, “Substituted aminopurine compounds, compositions thereof, and methods of treatment therewith” (Signal Pharmaceuticals, LLC, priority 2014, dated 2023):
Read-outs that look alike come from different tables or passages of the source.

System: Lox-IMVI melanoma cell line
Test: Lox-IMVI anti-proliferative assay (growth inhibition, Cell Titer-Glo)
Assay type: cell-based, human
Outline: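 Luminescence from cellular ATP measured viability at compound addition and again after 72 h of exposure (37 °C, 5% CO2, RPMI + 10% FBS). Doses spanned 0.5 nM to 10 μM in ten 3-fold steps with 0.2% DMSO. Values were fitted as % of DMSO-treated cells by sigmoidal dose-response.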

[1] = Homo sapiens, IC50 activity level in the cell-based Lox-IMVI anti-proliferative assay, read-out: Activity
[2] = Homo sapiens, Lox-IMVI melanoma cell line, anti-proliferative assay, read-out: Activity (IC50 activity level)
[3] = Homo sapiens, Lox-IMVI anti-proliferative assay, IC50 activity level, read-out: Activity

Row | IC50 [1] [nM] | SMILES | further results
1 | > 1000 | NC(=O)[C@H]1CC[C@@H](n2c(Nc3cc(F)cc(Cl)c3F)nc3cnc(N[C@H]4C[C@H](O)C4)nc32)CC1 [Example 287, (1s,4s)-4-(8-(3-chloro-2,5-difluorophenylamino)-2-((1R,3r)-3-hydroxycyclobutylamino)-9H-purin-9-yl)cyclohexanecarboxamide] | 
2 |  | CC1(C)COCC[C@H]1Nc1ncc2nc(Nc3c(F)cc(Cl)cc3F)n([C@H]3CC[C@@H](C(N)=O)CC3)c2n1 [Example 786, (1S,4s)-4-(8-(4-chloro-2,6-difluorophenylamino)-2-((R)-3,3-dimethyltetrahydro-2H-pyran-4-ylamino)-9H-purin-9-yl)cyclohexanecarboxamide] | IC50 [2]: > 1000 nM
3 | 500 to 1000 | CC[C@H](C)Nc1ncc2nc(Nc3c(F)cc(F)cc3Cl)n([C@H]3CC[C@@H](C(N)=O)CC3)c2n1 [Example 338, (1R,4s)-4-(2-(sec-butylamino)-8-(2-chloro-4,6-difluorophenylamino)-9H-purin-9-yl)cyclohexanecarboxamide] | 
4 | > 1000 | C[C@@H](CO)Nc1ncc2nc(Nc3c(Cl)cccc3Cl)n([C@H]3CC[C@@H](C(N)=O)CC3)c2n1 [Example 168, (1R,4s)-4-(8-(2,6-dichlorophenylamino)-2-((S)-1 hydroxypropan-2-ylamino)-9H-purin-9-yl)cyclohexanecarboxamide] | 
5 |  | C[C@]1(C(N)=O)CC[C@@H](n2c(Nc3c(Cl)cc(F)cc3Cl)nc3cnc(NC4CC(F)(F)C4)nc32)CC1 [Example 582, (1s,4s)-4-(8-(2,6-dichloro-4-fluorophenylamino)-2-(3,3-difluorocyclobutylamino)-9H-purin-9-yl)-1-methylcyclohexanecarboxamide] | IC50 [3]: < 250 nM
6 | > 1000 | C[C@@H](CO)Nc1ncc2nc(Nc3c(F)cccc3F)n([C@H]3CC[C@@H](C(N)=O)CC3)c2n1 [Example 167, (1R,4s)-4-(8-(2,6-difluorophenylamino)-2-((S)-1 hydroxypropan-2-ylamino)-9H-purin-9-yl)cyclohexanecarboxamide] | 
7 |  | N#Cc1cc(F)c(Nc2nc3cnc(NC4CC5(COC5)C4)nc3n2[C@H]2CC[C@@H](C(N)=O)CC2)c(Cl)c1 [Example 572, (1s,4s)-4-(2-(2-oxaspiro[3.3]heptan-6-ylamino)-8-(2-chloro-4-cyano-6-fluorophenylamino)-9H-purin-9-yl)cyclohexanecarboxamide] | IC50 [3]: 500 to 1000 nM
8 |  | N#Cc1cc(F)c(Nc2nc3cnc(N[C@@H]4CCOC[C@H]4F)nc3n2[C@H]2CC[C@@H](C(N)=O)CC2)c(Cl)c1 [Example 629, (1S,4s)-4-(8-(2-chloro-4-cyano-6-fluorophenylamino)-2-((3S,4R)-3-fluorotetrahydro-2H-pyran-4-ylamino)-9H-purin-9-yl)cyclohexanecarboxamide] | IC50 [2]: < 250 nM
9 |  | N#Cc1cc(F)c(Nc2nc3cnc(N[C@@H]4CCOC[C@H]4F)nc3n2[C@H]2CC[C@@H](C(N)=O)CC2)c(F)c1 [Example 801, (1S,4s)-4-(8-(4-cyano-2,6-difluorophenylamino)-2-((3S,4R)-3-fluorotetrahydro-2H-pyran-4-ylamino)-9H-purin-9-yl)cyclohexanecarboxamide] | IC50 (Homo sapiens, Lox-IMVI anti-proliferative assay, cell-based, read-out: Activity (IC50 activity level)): < 250 nM
10 | > 1000 | NC(=O)[C@H]1CC[C@@H](n2c(Nc3c(F)cc(Cl)cc3Cl)nc3cnc(NC4CCC4)nc32)CC1 [Example 130, (1s,4s)-4-(2-(cyclobutylamino)-8-(2,4-dichloro-6-fluorophenylamino)-9H-purin-9-yl)cyclohexanecarboxamide] | 
11 | > 1000 | NC(=O)[C@H]1CC[C@@H](n2c(Nc3c(F)cccc3Cl)nc3cnc(N[C@@H]4CCC[C@H]4O)nc32)CC1 [Example 250, (1S,4s)-4-(8-(2-chloro-6-fluorophenylamino)-2-((1R,2R)-2-hydroxycyclopentylamino)-9H-purin-9-yl)cyclohexanecarboxamide] | 
12 | 500 to 1000 | CS(=O)(=O)N1CCC(Nc2ncc3nc(Nc4c(F)cc(Cl)cc4Cl)n([C@H]4CC[C@@H](C(N)=O)CC4)c3n2)CC1 [Example 296, (1s,4s)-4-(8-(2,4-dichloro-6-fluorophenylamino)-2-(1-(methylsulfonyl)piperidin-4-ylamino)-9H-purin-9-yl)cyclohexanecarboxamide] | 
13 |  | C[C@H]1COCC[C@@H]1Nc1ncc2nc(Nc3c(Cl)cc(Cl)cc3Cl)n([C@H]3CC[C@@H](C(N)=O)CC3)c2n1 [Example 500, (1R,4s)-4-(2-((3R,4S)-3-methyltetrahydro-2H-pyran-4-ylamino)-8-(2,4,6-trichlorophenylamino)-9H-purin-9-yl)cyclohexanecarboxamide] | IC50 [3]: 500 to 1000 nM
14 |  | C[C@]1(C(N)=O)CC[C@@H](n2c(Nc3c(Cl)cc(C(F)(F)F)cc3Cl)nc3cnc(NC4CCCC4)nc32)CC1 [Example 562, (1s,4s)-4-(2-(cyclopentylamino)-8-(2,6-dichloro-4-(trifluoromethyl)phenylamino)-9H-purin-9-yl)-1-methylcyclohexanecarboxamide] | IC50 [3]: > 1000 nM
15 | > 1000 | NC(=O)[C@H]1CC[C@@H](n2c(Nc3c(F)cccc3F)nc3cnc(NC4CC(F)(F)C4)nc32)CC1 [Example 227, (1s,4s)-4-(2-(3,3-difluorocyclobutylamino)-8-(2,6-difluorophenylamino)-9H-purin-9-yl)cyclohexanecarboxamide] | 
16 |  | C[C@]1(C(N)=O)CC[C@@H](n2c(Nc3c(F)cc(Cl)cc3F)nc3cnc(N[C@@H]4CCOC[C@H]4F)nc32)CC1 [Example 720, (1S,4s)-4-(8-(4-chloro-2,6-difluorophenylamino)-2-((3S,4R)-3-fluorotetrahydro-2H-pyran-4-ylamino)-9H-purin-9-yl)-1-methylcyclohexanecarboxamide] | IC50 [2]: < 250 nM
17 | > 1000 | CC(C)(C)OC(=O)N1CCC[C@@H](Nc2ncc3nc(Nc4c(Cl)cc(Cl)cc4Cl)n([C@H]4CC[C@@H](C(N)=O)CC4)c3n2)C1 [Example 163, (R)-tert-butyl 3-(9-((1s,4S)-4-carbamoylcyclohexyl)-8-(2,4,6-trichlorophenylamino)-9H-purin-2-ylamino)piperidine-1-carboxylate] | 
18 |  | CS(=O)(=O)N1CCC[C@@H](Nc2ncc3nc(Nc4c(F)cc(C#N)cc4Cl)n([C@H]4CC[C@@H](C(N)=O)CC4)c3n2)C1 [Example 704, (1S,4s)-4-(8-(2-chloro-4-cyano-6-fluorophenylamino)-2-((R)-1-(methylsulfonyl)piperidin-3-ylamino)-9H-purin-9-yl)cyclohexanecarboxamide] | IC50 [2]: > 1000 nM
19 | > 1000 | NC(=O)[C@H]1CC[C@@H](n2c(Nc3ccc(Cl)cc3Cl)nc3cnc(N[C@@H]4CCC[C@H]4O)nc32)CC1 [Example 261, (1S,4s)-4-(8-(2,4-dichlorophenylamino)-2-((1R,2R)-2-hydroxycyclopentylamino)-9H-purin-9-yl)cyclohexanecarboxamide] | 
20 |  | C[C@]1(C(N)=O)CC[C@@H](n2c(Nc3c(Cl)cc(F)cc3Cl)nc3cnc(N[C@H]4CCC[C@@H](O)C4)nc32)CC1 [Example 631, (1R,4s)-4-(8-(2,6-dichloro-4-fluorophenylamino)-2-((1S,3R)-3-hydroxycyclohexylamino)-9H-purin-9-yl)-1-methylcyclohexanecarboxamide] | IC50 [2]: 500 to 1000 nM
21 |  | NC(=O)[C@H]1CC[C@@H](n2c(Nc3c(F)cc(Cl)cc3Cl)nc3cnc(N[C@@H]4CCCN(C(=O)Nc5ccccc5)C4)nc32)CC1 [Example 783, (R)-3-(9-((1s,4S)-4-carbamoylcyclohexyl)-8-(2,4-dichloro-6-fluorophenylamino)-9H-purin-2-ylamino)-N-phenylpiperidine-1-carboxamide] | IC50 [2]: > 1000 nM
22 | > 1000 | NC(=O)[C@H]1CC[C@@H](n2c(Nc3c(F)cc(Cl)cc3Cl)nc3cnc(N[C@H]4CCCOC4)nc32)CC1 [Example 204, (1R,4s)-4-(8-(2,4-dichloro-6-fluorophenylamino)-2-((S)-tetrahydro-2H-pyran-3-ylamino)-9H-purin-9-yl)cyclohexanecarboxamide] | 
23 | > 1000 | NC(=O)[C@H]1CC[C@@H](n2c(Nc3c(Cl)cc(Cl)cc3Cl)nc3cnc(N[C@H]4CC[C@H](O)CC4)nc32)CC1 [Example 78, (1s,4s)-4-(2-((1r,4r)-4-hydroxycyclohexylamino)-8-(2,4,6-trichlorophenylamino)-9H-purin-9-yl)cyclohexanecarboxamide] | 
24 | > 1000 | NC(=O)[C@H]1CC[C@@H](n2c(Nc3c(Cl)cc(Cl)cc3Cl)nc3cnc(N[C@H]4CCNC[C@H]4F)nc32)CC1 [Example 138, (1R,4s)-4-(2-((3R,4S)-3-fluoropiperidin-4-ylamino)-8-(2,4,6-trichlorophenylamino)-9H-purin-9-yl)cyclohexanecarboxamide] | 
25 | > 1000 | NC(=O)[C@H]1CC[C@@H](n2c(Nc3ccc(Cl)c(Cl)c3Cl)nc3cnc(NC4CCOCC4)nc32)CC1 [Example 73, (1s,4s)-4-(2-(tetrahydro-2H-pyran-4-ylamino)-8-(2,3,4-trichlorophenylamino)-9H-purin-9-yl)cyclohexanecarboxamide] | 
26 |  | N#Cc1cc(F)c(Nc2nc3cnc(N[C@H]4CCCOCC4)nc3n2C2CCC(C(N)=O)CC2)c(F)c1 (stereo partly shown) [Example 542, (1s,4s)-4-(8-(4-cyano-2,6-difluorophenylamino)-2-(oxepan-4-ylamino)-9H-purin-9-yl)cyclohexanecarboxamide] | IC50 (Lox-IMVI anti-proliferative assay, IC50 activity level, read-out: Activity): > 1000 nM
27 |  | C[C@]1(C(N)=O)CC[C@H](n2c(Nc3c(F)cc(Cl)cc3Cl)nc3cnc(N[C@@H]4CCC[C@H](O)C4)nc32)CC1 [Example 484, (1R,4r)-4-(8-(2,4-dichloro-6-fluorophenylamino)-2-((1R,3S)-3-hydroxycyclohexylamino)-9H-purin-9-yl)-1-methylcyclohexanecarboxamide] | IC50 [3]: > 1000 nM
28 |  | C[C@]1(C(N)=O)CC[C@@H](n2c(Nc3c(Cl)cc(C#N)cc3Cl)nc3cnc(NC4CC(F)(F)C4)nc32)CC1 [Example 666, (1s,4s)-4-(8-(2,6-dichloro-4-cyanophenylamino)-2-(3,3-difluorocyclobutylamino)-9H-purin-9-yl)-1-methylcyclohexanecarboxamide] | IC50 [2]: < 250 nM
